Data from patent US11945822B2, “Pyrazolo-triazine and/or pyrazolo-pxrimidine derivatives as selective inhibitor of cyclin dependent kinase” (QURIENT CO., LTD., priority 2018, dated 2024).

Key:
[1] = target: T1, CDK1/Cyclin B (Homo sapiens, UniProt P06493); experiment: Enzymatic assay for CDK1 (FRET based LANCE Ultra kinase assay); assay type: biochemical; conditions: read-out: CDK1 enzymatic activity (IC50 range)
T1 construct: purchased Invitrogen PR4768C
Procedure, shortened: (§1)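 LANCE Ultra TR-FRET: ULight-MBP peptide (68 nM) with ATP at Km, […], 60 min at 23° C. EDTA plus Eu-anti-phospho-MBP added, another 60 min, then 665/615 nm emission read. Compounds tested as 8-dose 4-fold DMSO dilutions.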

[2] = target: T2, CDK2/Cyclin A (Homo sapiens, UniProt P24941); experiment: Enzymatic assay for CDK2 (FRET based LANCE Ultra kinase assay); assay type: biochemical; conditions: read-out: CDK2 enzymatic activity (IC50 range)
T2 construct: purchased Invitrogen PV6290
Procedure, shortened: as §1

[3] = target: T3, CDK5/p25 (Homo sapiens, UniProt Q00535); experiment: Enzymatic assay for CDK5 (FRET based LANCE Ultra kinase assay); assay type: biochemical; conditions: read-out: CDK5 enzymatic activity (IC50 range)
T3 construct: purchased Invitrogen PR8543B
Procedure, shortened: as §1

[4] = target: T4, CDK7/Cyclin H/MNAT1 (Homo sapiens, UniProt P50613); experiment: Enzymatic assay for CDK7 (FRET based LANCE Ultra kinase assay); assay type: biochemical; conditions: for IC50: read-out: CDK7 enzymatic activity (IC50 range)
T4 construct: purchased Invitrogen PR6749B
Procedure, shortened: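 LANCE Ultra TR-FRET kinase assay using a ULight-labeled peptide substrate and a Eu-labeled anti-phospho antibody, with ATP at its Km. Purified CDK/cyclin complex was added to compound after brief centrifugation.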

[5] = tested on: H460; experiment: Cellular H460 viability assay (CellTiter-Glo, 72 hours); assay type: cell-based; conditions: Homo sapiens, NCI-H460
Procedure, shortened: (§2)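 Cells plated in 96 wells and exposed to compound 72 h at 37 °C, 5% CO2, final DMSO below 0.1%, DMSO control. Viability by CellTiter-Glo luminescence, duplicate.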

[6] = tested on: MOLT-4; experiment: Cellular MOLT-4 viability assay (CellTiter-Glo, 72 hours); assay type: cell-based; conditions: Homo sapiens, MOLT4 viability assay
Protocol: All cell lines were routinely tested for mycoplasma.
The effect of the CDK7 inhibitor to inhibit the growth of target cancer cells was evaluated through the 72 hours time period of viability assay. Briefly, the candidate cell line ware plated in 96 well plate at the following density of cells respectively. […] DMSO solvent without compound served as a control and final DMSO concentration less than 0.1%. After 72 hours of incubation at 37° C., 5% CO2 incubator, cells were analyzed for the viability using the CellTiter-Glo Luminescent Cell Viability Assay (Promega, Cat #G7570). All viability assays were performed in duplicate and Luminescence was read using an Envision (Perkin Elmer, USA). Data was analyzed using XLfit software.

[7] = tested on: HCT116; experiment: Cellular HCT116 viability assay (CellTiter-Glo, 72 hours); assay type: cell-based; conditions: Homo sapiens, HCT-116
Procedure, shortened: as §2

[8] = tested on: MV4-11; experiment: Cellular MV4-11 viability assay (CellTiter-Glo, 72 hours); assay type: cell-based; conditions: Homo sapiens
Procedure, shortened: as §2

T3 sequence (Q00535 whole entry): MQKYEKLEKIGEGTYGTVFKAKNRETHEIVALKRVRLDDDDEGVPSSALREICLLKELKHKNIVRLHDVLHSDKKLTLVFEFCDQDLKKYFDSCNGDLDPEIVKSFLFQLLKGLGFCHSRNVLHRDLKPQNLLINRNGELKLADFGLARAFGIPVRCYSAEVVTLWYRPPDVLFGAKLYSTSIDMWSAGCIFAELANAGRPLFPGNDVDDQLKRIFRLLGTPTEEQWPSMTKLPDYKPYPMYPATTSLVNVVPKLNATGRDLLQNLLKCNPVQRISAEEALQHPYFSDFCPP
T3 sequence (Q15078 99-307 partner limits assumed): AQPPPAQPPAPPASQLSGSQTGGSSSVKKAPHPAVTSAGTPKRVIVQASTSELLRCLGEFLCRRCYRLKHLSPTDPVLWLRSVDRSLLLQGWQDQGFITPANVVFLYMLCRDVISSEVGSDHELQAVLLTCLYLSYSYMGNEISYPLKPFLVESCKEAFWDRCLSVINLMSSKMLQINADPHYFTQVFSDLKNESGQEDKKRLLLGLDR
T4 sequence (P50613 whole entry): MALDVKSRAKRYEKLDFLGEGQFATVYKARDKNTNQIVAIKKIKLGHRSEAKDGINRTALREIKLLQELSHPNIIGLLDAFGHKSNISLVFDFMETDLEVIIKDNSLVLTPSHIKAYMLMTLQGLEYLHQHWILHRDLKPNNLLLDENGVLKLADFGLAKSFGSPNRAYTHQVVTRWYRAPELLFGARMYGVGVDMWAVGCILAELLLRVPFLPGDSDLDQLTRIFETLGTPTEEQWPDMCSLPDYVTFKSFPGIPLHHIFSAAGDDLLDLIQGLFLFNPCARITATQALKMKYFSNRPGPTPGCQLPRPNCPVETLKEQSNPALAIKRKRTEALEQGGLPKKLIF
T4 sequence (P51946 whole entry partner): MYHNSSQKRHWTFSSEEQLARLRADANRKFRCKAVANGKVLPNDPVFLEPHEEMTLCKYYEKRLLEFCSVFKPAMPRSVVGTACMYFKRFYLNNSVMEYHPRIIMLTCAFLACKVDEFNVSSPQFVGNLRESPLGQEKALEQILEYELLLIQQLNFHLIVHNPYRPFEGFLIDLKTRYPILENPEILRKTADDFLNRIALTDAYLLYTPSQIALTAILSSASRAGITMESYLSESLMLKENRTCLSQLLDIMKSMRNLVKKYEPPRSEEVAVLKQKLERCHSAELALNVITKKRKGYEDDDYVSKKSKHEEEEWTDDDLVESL
T4 sequence (P51948 whole entry partner): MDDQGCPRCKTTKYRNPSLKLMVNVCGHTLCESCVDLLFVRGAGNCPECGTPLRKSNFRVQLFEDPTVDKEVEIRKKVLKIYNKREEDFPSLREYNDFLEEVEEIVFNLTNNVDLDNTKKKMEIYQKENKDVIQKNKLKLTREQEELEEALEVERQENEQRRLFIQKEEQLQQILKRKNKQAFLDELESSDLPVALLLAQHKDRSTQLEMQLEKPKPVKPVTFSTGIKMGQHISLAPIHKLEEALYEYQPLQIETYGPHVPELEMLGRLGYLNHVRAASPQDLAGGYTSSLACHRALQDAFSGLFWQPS
T1 sequence (P06493 whole entry): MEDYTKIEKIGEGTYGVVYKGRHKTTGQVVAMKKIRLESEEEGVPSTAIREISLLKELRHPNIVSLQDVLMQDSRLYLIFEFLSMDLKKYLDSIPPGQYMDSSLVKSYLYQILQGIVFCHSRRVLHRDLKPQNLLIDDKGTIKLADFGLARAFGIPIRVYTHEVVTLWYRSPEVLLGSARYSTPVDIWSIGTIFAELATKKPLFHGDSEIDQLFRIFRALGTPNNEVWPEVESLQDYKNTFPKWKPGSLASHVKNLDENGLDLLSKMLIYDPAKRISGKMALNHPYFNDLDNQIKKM
T1 sequence (P14635 whole entry partner): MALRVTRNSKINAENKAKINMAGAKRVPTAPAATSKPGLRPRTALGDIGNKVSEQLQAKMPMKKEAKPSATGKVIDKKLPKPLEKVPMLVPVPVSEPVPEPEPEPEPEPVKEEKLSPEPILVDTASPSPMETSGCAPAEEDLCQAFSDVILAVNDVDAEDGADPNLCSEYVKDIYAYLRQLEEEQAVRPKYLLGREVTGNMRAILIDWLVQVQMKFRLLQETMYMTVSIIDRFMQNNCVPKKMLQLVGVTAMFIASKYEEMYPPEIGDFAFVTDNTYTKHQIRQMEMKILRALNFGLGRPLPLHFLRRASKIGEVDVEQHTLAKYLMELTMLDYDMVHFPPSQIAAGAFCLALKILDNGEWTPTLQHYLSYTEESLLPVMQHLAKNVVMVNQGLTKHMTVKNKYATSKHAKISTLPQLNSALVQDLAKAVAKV

Structure (SMILES)	IC50 [1] [µM]	IC50 [2] [µM]	IC50 [3] [µM]	CDK1/CDK7: Selectivity of CDK7 inhibition over CDK1 inhibition [4]	CDK2/CDK7: Selectivity of CDK7 inhibition over CDK2 inhibition [4]	CDK5/CDK7: Selectivity of CDK7 inhibition over CDK5 inhibition [4]	IC50 [4] [µM]	IC50 [5] [µM]	IC50 [6] [µM]	IC50 [7] [µM]	IC50 [8] [µM]
CC(C)c1cnn2c(NCc3ccccc3-n3cccn3)nc(-c3ccc(Cl)c(OC4CCNCC4)c3)nc12 [Compound 173]	> 1	> 1	0.1 to 1	A (A=greater than 200 fold)	B (B=less than 200 fold, but greater than 20 fold)	B (B=less than 200 fold, but greater than 20 fold)	< 0.1	1 to 10	1 to 10	–	–
CC(C)c1cnn2c(NCc3cccc4cccnc34)nc(N3CCC(N)CC3)nc12 [Compound 9]	0.1 to 1	0.1 to 1	< 0.1	B (B=less than 200 fold, but greater than 20 fold)	B (B=less than 200 fold, but greater than 20 fold)	C (C=less than 20 fold)	< 0.1	< 1	1 to 10	–	–
CC(C)(C)c1cnn2c(NCc3ccccc3-n3cccn3)nc(N3CCC(N)CC3)nc12 [Compound 24]	0.1 to 1	0.1 to 1	< 0.1	B (B=less than 200 fold, but greater than 20 fold)	B (B=less than 200 fold, but greater than 20 fold)	B (B=less than 200 fold, but greater than 20 fold)	< 0.1	< 1	1 to 10	< 1	–
CCCc1ccccc1CNc1nc(N2CCC(N)CC2)nc2c(C(C)C)cnn12 [Compound 55]	0.1 to 1	0.1 to 1	0.1 to 1	B (B=less than 200 fold, but greater than 20 fold)	B (B=less than 200 fold, but greater than 20 fold)	C (C=less than 20 fold)	< 0.1	1 to 10	1 to 10	–	–
CC(C)c1cnn2c(NCc3ccncc3-n3cccn3)nc(N3CCC(N)CC3)nc12 [Compound 6]	–	–	–	–	–	–	–	< 1	> 10	–	–
CC(=O)N(C)c1ccccc1CNc1nc(N2CCC(N)CC2)nc2c(C(C)C)cnn12 [Compound 64]	> 1	> 1	0.1 to 1	A (A=greater than 200 fold)	A (A=greater than 200 fold)	B (B=less than 200 fold, but greater than 20 fold)	< 0.1	< 1	> 10	–	< 1
CC(C)c1cnn2c(NCc3ccccc3NC3CCN(C)CC3)nc(N3CCC(N)CC3)nc12 [Compound 49]	–	–	–	–	–	–	–	1 to 10	1 to 10	1 to 10	–
CC(C)c1cnn2c(NCc3ccccc3-c3ccco3)nc(N3CCC(N)CC3)nc12 [Compound 45]	–	–	–	–	–	–	–	< 1	1 to 10	–	–
Cc1ccc(-n2cccn2)cc1CNc1nc(N2CCC(N)CC2)nc2c(C(C)C)cnn12 [Compound 75]	> 1	> 1	0.1 to 1	A (A=greater than 200 fold)	B (B=less than 200 fold, but greater than 20 fold)	B (B=less than 200 fold, but greater than 20 fold)	< 0.1	1 to 10	1 to 10	–	–
CC(C)c1cnn2c(NCc3ccccc3OCc3ccccc3)nc(N3CCC(N)CC3)nc12 [Compound 57]	> 1	> 1	0.1 to 1	A (A=greater than 200 fold)	A (A=greater than 200 fold)	B (B=less than 200 fold, but greater than 20 fold)	< 0.1	1 to 10	1 to 10	–	–
CC(C)c1cnn2c(NCc3ccccc3N(C)C3CCN(C)CC3)nc(N3CCC(N)CC3)nc12 [Compound 53]	–	–	–	–	–	–	–	< 1	1 to 10	1 to 10	–
CC(C)c1cnn2c(NCc3cccc(NC(=O)c4cccc(NC(=O)CCCN(C)C)c4)c3)nc(N3CCC(N)CC3)nc12 [Compound 70]	> 1	0.1 to 1	0.1 to 1	A (A=greater than 200 fold)	B (B=less than 200 fold, but greater than 20 fold)	B (B=less than 200 fold, but greater than 20 fold)	< 0.1	1 to 10	> 10	–	–
NC1CCN(c2nc(NCc3ccccc3-n3cccn3)n3ncc(C(F)(F)F)c3n2)CC1 [Compound 41]	–	–	–	–	–	–	–	< 1	> 10	–	–
CC(C)c1cnn2c(NCc3ccsc3-n3cccn3)nc(N3CCC(N)CC3)nc12 [Compound 62]	0.1 to 1	0.1 to 1	< 0.1	B (B=less than 200 fold, but greater than 20 fold)	B (B=less than 200 fold, but greater than 20 fold)	C (C=less than 20 fold)	< 0.1	< 1	1 to 10	–	–
CC(C)c1cnn2c(NCc3ncccc3-n3cccn3)nc(N3CCC(N)CC3)nc12 [Compound 5]	–	–	–	–	–	–	–	1 to 10	> 10	–	–
CC(C)c1cnn2c(NCc3ccccc3-n3cccn3)nc(NC3CCNCC3)nc12 [Compound 40]	> 1	0.1 to 1	0.1 to 1	A (A=greater than 200 fold)	B (B=less than 200 fold, but greater than 20 fold)	C (C=less than 20 fold)	< 0.1	< 1	> 10	–	< 1
CC(C)c1cnn2c(NCc3ccccc3Oc3ccc4ccccc4n3)nc(N3CCC(N)CC3)nc12 [Compound 74]	> 1	> 1	0.1 to 1	B (B=less than 200 fold, but greater than 20 fold)	B (B=less than 200 fold, but greater than 20 fold)	B (B=less than 200 fold, but greater than 20 fold)	< 0.1	1 to 10	> 10	–	–
CC(C)c1cnn2c(NCc3ccccc3-n3ccc4ccccc43)nc(N3CCC(N)CC3)nc12 [Compound 68]	–	–	–	–	–	–	–	< 1	1 to 10	–	–
CC(C)c1cnn2c(NCc3cccc(NC(=O)c4ccccc4)c3)nc(N3CCC(N)CC3)nc12 [Compound 50]	–	–	–	–	–	–	–	< 1	1 to 10	1 to 10	–
CC(C)c1cnn2c(NCc3ccccc3-n3cccn3)nc(N3CCN(C)CC3)nc12 [Compound 3]	> 1	> 1	0.1 to 1	A (A=greater than 200 fold)	B (B=less than 200 fold, but greater than 20 fold)	B (B=less than 200 fold, but greater than 20 fold)	< 0.1	1 to 10	> 10	–	–
